Reference: PubChem BioAssay AID1259407 (Chemical Carcinogenesis Research Information System (CCRIS), 2018)
The source made the active and inactive calls. No rule for the calls is given here.

Test system: CCRIS mutagenicity, Ames/micronucleus/aberration tests
Assay: CCRIS mutagenicity studies
[1] = Test System: AMES SALMONELLA TYPHIMURIUM, Strain/Indicator: TA98, Metabolic Activation: NONE, Method: STANDARD PLATE

Nc1cccc2c1ccc1ccccc12
mutagenic call (Test System: AMES SALMONELLA TYPHIMURIUM, Strain/Indicator: TA98, Metabolic Activation: RAT, LIVER, S-9, AROCLOR 1254 (2 OR 4%), Method: STANDARD PLATE): active; positive | mutagenic call (Test System: AMES SALMONELLA TYPHIMURIUM, Strain/Indicator: TA100, Metabolic Activation: RAT, LIVER, S-9, AROCLOR 1254 (2%), Method: STANDARD PLATE): active; positive | mutagenic call (Test System: AMES SALMONELLA TYPHIMURIUM, Strain/Indicator: TA1535, Metabolic Activation: RAT, LIVER, S-9, AROCLOR 1254 (2%), Method: STANDARD PLATE): inactive; negative | mutagenic call (Test System: AMES SALMONELLA TYPHIMURIUM, Strain/Indicator: TA1537, Metabolic Activation: RAT, LIVER, S-9, AROCLOR 1254 (2%), Method: STANDARD PLATE): active; positive

CC(C)c1ccc(/C=C/c2ccc([N+](=O)[O-])cc2)cc1
mutagenic call [1]: inactive; negative | mutagenic call (Test System: AMES SALMONELLA TYPHIMURIUM, Strain/Indicator: TA98, Metabolic Activation: RAT, LIVER, S-9, AROCLOR, Method: STANDARD PLATE): active; positive | mutagenic call (Test System: AMES SALMONELLA TYPHIMURIUM, Strain/Indicator: TA100, Metabolic Activation: NONE, Method: STANDARD PLATE): inactive; negative | mutagenic call (Test System: AMES SALMONELLA TYPHIMURIUM, Strain/Indicator: TA100, Metabolic Activation: RAT, LIVER, S-9, AROCLOR, Method: STANDARD PLATE): active; positive

CCC1CO1 (centres undefined)
mutagenic call (End Point: IN VITRO CHROMOSOMAL ABERRATIONS, Test System: CHO CELLS, Metabolic Activation: NONE): inactive; negative; authors report a positive response at the highest dose but few cells c | mutagenic call (End Point: IN VITRO CHROMOSOMAL ABERRATIONS, Test System: HUMAN PERIPHERAL LYMPHOCYTES, Metabolic Activation: NONE, Method: FISH (DUAL COLOR FOR CHROMOSOMES 7, 8, 12 AND X)): active; positive (hyperdiploidy of chromosomes 12 and x) | mutagenic call (End Point: IN VITRO MICRONUCLEUS, Test System: HUMAN PERIPHERAL LYMPHOCYTES, Metabolic Activation: NONE): active; positive | mutagenic call (Test System: AMES SALMONELLA TYPHIMURIUM, Strain/Indicator: TA98, Metabolic Activation: HAMSTER, LIVER, S-9, AROCLOR 1254, Method: PREINCUBATION): inactive; negative | mutagenic call (Test System: AMES SALMONELLA TYPHIMURIUM, Strain/Indicator: TA98, Metabolic Activation: NONE, Method: FLUCTUATION (MICROTITER)): inactive; negative | mutagenic call (Test System: AMES SALMONELLA TYPHIMURIUM, Strain/Indicator: TA98, Metabolic Activation: NONE, Method: PREINCUBATION): inactive; negative | mutagenic call [1]: inactive; negative | mutagenic call (Test System: AMES SALMONELLA TYPHIMURIUM, Strain/Indicator: TA98, Metabolic Activation: RAT LIVER S-9, AROCLOR 1254, Method: FLUCTUATION (MICROTITER)): inactive; negative | mutagenic call (Test System: AMES SALMONELLA TYPHIMURIUM, Strain/Indicator: TA98, Metabolic Activation: RAT, LIVER, S-9, AROCLOR 1254, Method: PREINCUBATION): inactive; negative | mutagenic call (Test System: AMES SALMONELLA TYPHIMURIUM, Strain/Indicator: TA100, Metabolic Activation: HAMSTER, LIVER, S-9, AROCLOR 1254, Method: PREINCUBATION): active; positive | mutagenic call (Test System: AMES SALMONELLA TYPHIMURIUM, Strain/Indicator: TA100, Metabolic Activation: NONE, Method: PREINCUBATION): active; positive | mutagenic call (Test System: AMES SALMONELLA TYPHIMURIUM, Strain/Indicator: TA100, Metabolic Activation: RAT, LIVER, S-9, AROCLOR 1254, Method: PREINCUBATION): active; positive | mutagenic call (Test System: AMES SALMONELLA TYPHIMURIUM, Strain/Indicator: TA1535, Metabolic Activation: HAMSTER, LIVER, S-9, AROCLOR 1254, Method: PREINCUBATION): active; positive | mutagenic call (Test System: AMES SALMONELLA TYPHIMURIUM, Strain/Indicator: TA1535, Metabolic Activation: NONE, Method: PREINCUBATION): active; positive | mutagenic call (Test System: AMES SALMONELLA TYPHIMURIUM, Strain/Indicator: TA1535, Metabolic Activation: NONE, Method: STANDARD PLATE): active; positive | mutagenic call (Test System: AMES SALMONELLA TYPHIMURIUM, Strain/Indicator: TA1535, Metabolic Activation: RAT, LIVER, S-9, AROCLOR 1254, Method: PREINCUBATION): active; positive | mutagenic call (Test System: AMES SALMONELLA TYPHIMURIUM, Strain/Indicator: TA1537, Metabolic Activation: HAMSTER, LIVER, S-9, AROCLOR 1254, Method: PREINCUBATION): inactive; negative | mutagenic call (Test System: AMES SALMONELLA TYPHIMURIUM, Strain/Indicator: TA1537, Metabolic Activation: NONE, Method: FLUCTUATION (MICROTITER)): inactive; negative | mutagenic call (Test System: AMES SALMONELLA TYPHIMURIUM, Strain/Indicator: TA1537, Metabolic Activation: NONE, Method: PREINCUBATION): inactive; negative | mutagenic call (Test System: AMES SALMONELLA TYPHIMURIUM, Strain/Indicator: TA1537, Metabolic Activation: RAT LIVER S-9, AROCLOR 1254, Method: FLUCTUATION (MICROTITER)): inactive; negative | mutagenic call (Test System: AMES SALMONELLA TYPHIMURIUM, Strain/Indicator: TA1537, Metabolic Activation: RAT, LIVER, S-9, AROCLOR 1254, Method: PREINCUBATION): inactive; negative | mutagenic call (Test System: AMES SALMONELLA TYPHIMURIUM, Strain/Indicator: TA7001, Metabolic Activation: NONE, Method: FLUCTUATION (MICROTITER)): inactive; negative | mutagenic call (Test System: AMES SALMONELLA TYPHIMURIUM, Strain/Indicator: TA7001, Metabolic Activation: RAT LIVER S-9, AROCLOR 1254, Method: FLUCTUATION (MICROTITER)): inactive; negative | mutagenic call (Test System: AMES SALMONELLA TYPHIMURIUM, Strain/Indicator: TA7002, Metabolic Activation: NONE, Method: FLUCTUATION (MICROTITER)): inactive; negative | mutagenic call (Test System: AMES SALMONELLA TYPHIMURIUM, Strain/Indicator: TA7002, Metabolic Activation: RAT LIVER S-9, AROCLOR 1254, Method: FLUCTUATION (MICROTITER)): inactive; negative | mutagenic call (Test System: AMES SALMONELLA TYPHIMURIUM, Strain/Indicator: TA7003, Metabolic Activation: NONE, Method: FLUCTUATION (MICROTITER)): inactive; negative | mutagenic call (Test System: AMES SALMONELLA TYPHIMURIUM, Strain/Indicator: TA7003, Metabolic Activation: RAT LIVER S-9, AROCLOR 1254, Method: FLUCTUATION (MICROTITER)): inactive; negative | mutagenic call (Test System: AMES SALMONELLA TYPHIMURIUM, Strain/Indicator: TA7004, Metabolic Activation: NONE, Method: FLUCTUATION (MICROTITER)): active; positive | mutagenic call (Test System: AMES SALMONELLA TYPHIMURIUM, Strain/Indicator: TA7004, Metabolic Activation: RAT LIVER S-9, AROCLOR 1254, Method: FLUCTUATION (MICROTITER)): inactive; negative | mutagenic call (Test System: AMES SALMONELLA TYPHIMURIUM, Strain/Indicator: TA7005, Metabolic Activation: NONE, Method: FLUCTUATION (MICROTITER)): inactive; negative | mutagenic call (Test System: AMES SALMONELLA TYPHIMURIUM, Strain/Indicator: TA7005, Metabolic Activation: RAT LIVER S-9, AROCLOR 1254, Method: FLUCTUATION (MICROTITER)): inactive; negative | mutagenic call (Test System: AMES SALMONELLA TYPHIMURIUM, Strain/Indicator: TA7006, Metabolic Activation: NONE, Method: FLUCTUATION (MICROTITER)): inactive; negative | mutagenic call (Test System: AMES SALMONELLA TYPHIMURIUM, Strain/Indicator: TA7006, Metabolic Activation: RAT LIVER S-9, AROCLOR 1254, Method: FLUCTUATION (MICROTITER)): inactive; negative | mutagenic call (Test System: E. COLI, Strain/Indicator: WP2 UVRA, Metabolic Activation: HAMSTER, LIVER, S-9, AROCLOR 1254, Method: PREINCUBATION): inactive; negative | mutagenic call (Test System: E. COLI, Strain/Indicator: WP2 UVRA, Metabolic Activation: HAMSTER, LIVER, S-9, AROCLOR 1254, Method: STANDARD PLATE): inactive; negative | mutagenic call (Test System: E. COLI, Strain/Indicator: WP2 UVRA, Metabolic Activation: HAMSTER, LIVER, S-9, Method: STANDARD PLATE): inactive; negative | mutagenic call (Test System: E. COLI, Strain/Indicator: WP2 UVRA, Metabolic Activation: MOUSE, LIVER, S-9, AROCLOR 1254, Method: PREINCUBATION): inactive; negative | mutagenic call (Test System: E. COLI, Strain/Indicator: WP2 UVRA, Metabolic Activation: MOUSE, LIVER, S-9, AROCLOR 1254, Method: STANDARD PLATE): inactive; negative | mutagenic call (Test System: E. COLI, Strain/Indicator: WP2 UVRA, Metabolic Activation: MOUSE, LIVER, S-9, Method: PREINCUBATION): inactive; negative | mutagenic call (Test System: E. COLI, Strain/Indicator: WP2 UVRA, Metabolic Activation: MOUSE, LIVER, S-9, Method: STANDARD PLATE): inactive; negative | mutagenic call (Test System: E. COLI, Strain/Indicator: WP2 UVRA, Metabolic Activation: NONE, Method: PREINCUBATION): inactive; negative | mutagenic call (Test System: E. COLI, Strain/Indicator: WP2 UVRA, Metabolic Activation: NONE, Method: STANDARD PLATE): inactive; negative | mutagenic call (Test System: E. COLI, Strain/Indicator: WP2 UVRA, Metabolic Activation: RAT, LIVER, S-9, AROCLOR 1254, Method: PREINCUBATION): inactive; negative | mutagenic call (Test System: E. COLI, Strain/Indicator: WP2 UVRA, Metabolic Activation: RAT, LIVER, S-9, AROCLOR 1254, Method: STANDARD PLATE): inactive; negative | mutagenic call (Test System: E. COLI, Strain/Indicator: WP2 UVRA, Metabolic Activation: RAT, LIVER, S-9, Method: PREINCUBATION): inactive; negative | mutagenic call (Test System: E. COLI, Strain/Indicator: WP2 UVRA, Metabolic Activation: RAT, LIVER, S-9, Method: STANDARD PLATE): inactive; negative
